Experimental data reported in PubChem BioAssay AID2060623 (Molecular Pharmacology Branch, DTP, NCI, 2025).

Tested on: 227483-062-R1-J1-PDC complex spheroids with HUVEC/MSC, viability
Assay: Anticancer human tumor 227483-062-R1-J1-PDC patient-derived pancreatic carcinoma cell line growth inhibition [CLK]
Conditions: for IC50: curve of first compound; for viability, T/C: stronger effect = lower value
Outline: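 Patient-derived tumor cells grown as complex spheroids with HUVEC endothelial cells and mesenchymal stem cells, treated with drug combinations. Concentrations descend in half-log steps from near clinical Cmax, or from 10 microM if Cmax unknown.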
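Note: spheroids exposed to compounds for seven days before readout.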
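Throughout, for viability, T/C: percent of DMSO vehicle control luminescence as 100% viability.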

CCN1CCN(Cc2ccc(Nc3ncc(F)c(-c4cc(F)c5nc(C)n(C(C)C)c5c4)n3)nc2)CC1 + CNC(=O)c1ccc(Nc2nc(OC3CCCC3)c3c(-c4ccc5nc(C)oc5c4)c[nH]c3n2)c(OC)c1
IC50 (second compound 0.0316 µM): > 1000 nM | IC50 (second compound 0.1 µM): > 1000 nM | IC50 (second compound 0.316 µM): > 1000 nM | IC50 (second compound 1 µM): > 1000 nM | IC50 (second compound 3.16 µM): 577 nM | IC50 (second compound 10 µM): > 1000 nM | viability, T/C (second compound 0.0316 µM, first compound 0.00316 µM): 103% | viability, T/C (second compound 0.0316 µM, first compound 0.01 µM): 89.3% | viability, T/C (second compound 0.0316 µM, first compound 0.0316 µM): 86.9% | viability, T/C (second compound 0.0316 µM, first compound 0.1 µM): 82.1% | viability, T/C (second compound 0.0316 µM, first compound 0.316 µM): 79.3% | viability, T/C (second compound 0.0316 µM, first compound 1 µM): 81.8% | viability, T/C (second compound 0.1 µM, first compound 0.00316 µM): 103% | viability, T/C (second compound 0.1 µM, first compound 0.01 µM): 115% | viability, T/C (second compound 0.1 µM, first compound 0.0316 µM): 95.3% | viability, T/C (second compound 0.1 µM, first compound 0.1 µM): 103% | viability, T/C (second compound 0.1 µM, first compound 0.316 µM): 76.9% | viability, T/C (second compound 0.1 µM, first compound 1 µM): 79% | viability, T/C (second compound 0.316 µM, first compound 0.00316 µM): 86.3% | viability, T/C (second compound 0.316 µM, first compound 0.01 µM): 94.2% | viability, T/C (second compound 0.316 µM, first compound 0.0316 µM): 88.8% | viability, T/C (second compound 0.316 µM, first compound 0.1 µM): 74% | viability, T/C (second compound 0.316 µM, first compound 0.316 µM): 70.7% | viability, T/C (second compound 0.316 µM, first compound 1 µM): 67.9% | viability, T/C (second compound 1 µM, first compound 0.00316 µM): 75.4% | viability, T/C (second compound 1 µM, first compound 0.01 µM): 72.4% | viability, T/C (second compound 1 µM, first compound 0.0316 µM): 64.4% | viability, T/C (second compound 1 µM, first compound 0.1 µM): 75.1% | viability, T/C (second compound 1 µM, first compound 0.316 µM): 60.6% | viability, T/C (second compound 1 µM, first compound 1 µM): 53.1% | viability, T/C (second compound 3.16 µM, first compound 0.00316 µM): 65% | viability, T/C (second compound 3.16 µM, first compound 0.01 µM): 64.7% | viability, T/C (second compound 3.16 µM, first compound 0.0316 µM): 61.7% | viability, T/C (second compound 3.16 µM, first compound 0.1 µM): 57.4% | viability, T/C (second compound 3.16 µM, first compound 0.316 µM): 60.8% | viability, T/C (second compound 3.16 µM, first compound 1 µM): 41.4% | viability, T/C (second compound 10 µM, first compound 0.00316 µM): 41.9% | viability, T/C (second compound 10 µM, first compound 0.01 µM): 56.5% | viability, T/C (second compound 10 µM, first compound 0.0316 µM): 60.4% | viability, T/C (second compound 10 µM, first compound 0.1 µM): 74.6% | viability, T/C (second compound 10 µM, first compound 0.316 µM): 65.2% | viability, T/C (second compound 10 µM, first compound 1 µM): 37.1%
